Data: patent US20080207614A1, “QUINAZOLINE DERIVATIVES FOR THE TREATMENT AND PREVENTION OF DIABETES AND OBESITY” (SK CHEMICALS CO., LTD., priority 2004, published 2008)

Key:
AMPK = assay: Measurement of AMPK activity by Western blot in C2C12 cells; assay type: cell-based; set-up: key to AMPK activity (degree of phosphorylation of serine-79 and threonine-172): fold increase in threonine-172 phosphorylation; conditions: 10 μM for 50 minutes; for AMPK activity (degree of phosphorylation of serine-79 and threonine-172): no superscript: Western blot of serine-79 and threonine-172 phosphorylation; for AMPK activity (class: degree of phosphorylation of threonine-172): strong/mild/weak
Outline: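 Western blot readout of AMPK Thr-172 and ACC Ser-79 phosphorylation, normalised against ERK, served as the activity measure. Cells were C2C12 after differentiation, treated 50 minutes with 10 μM test material. Grading by Thr-172 increase: ≥3-fold strong, 1-3-fold mild, <1-fold weak.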

C2C12 muscle cells = assay: Analysis of glucose absorption (2-deoxyglucose) in differentiated C2C12 muscle cells; assay type: cell-based; conditions: test materials 10 μM, times relative to control group
Outline: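 Uptake of 0.2 μCi 2-deoxyglucose over 20 min, counted radiometrically in lysed cells. Before tracer, compounds (10 μM) were applied for 30 min to C2C12 cells differentiated 6 days in 1% serum and equilibrated 3 h in 5 mM glucose KRB.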

Compound | AMPK activity (degree of phosphorylation of serine-79 and threonine-172) (AMPK) | AMPK activity (class: degree of phosphorylation of threonine-172) (AMPK) | Glucose absorption (C2C12 muscle cells)
C1=C(CCNc2nc(-c3ccccc3)nc3ccccc23)CCCC1 [Compound 131, (2-Cyclohex-1-enylethyl)-(2-phenylquinazolino-4-yl)-amine] | 1.8 | strong (“strong” means that the degree of phosphorylation of threonine-172 increased by 3 times or more) | 2.3
c1ccc(-c2nc(NCC(c3ccccc3)c3ccccc3)c3ccccc3n2)cc1 [Compound 133, (2,2-Diphenylethyl)-(2-phenylquinazolino-4-yl)-amine] | 1.3 | mild (“mild” means that the degree of phosphorylation of threonine-172 increased by 1 to 3 times) | 2.1
Fc1ccc(CNc2nc(-c3ccccc3)nc3ccccc23)c(F)c1 [Compound 134, (2,4-Difluorobenzyl)-(2-phenylquinazolino-4-yl)-amine] | 1.8 | strong (“strong” means that the degree of phosphorylation of threonine-172 increased by 3 times or more) | 2.6
Fc1ccc(F)c(CNc2nc(-c3ccccc3)nc3ccccc23)c1 [Compound 135, (2,5-Difluorobenzyl)-(2-phenylquinazolino-4-yl)-amine] | 2.0 | strong (“strong” means that the degree of phosphorylation of threonine-172 increased by 3 times or more) | 2.6
Brc1ccc(CCNc2nc(-c3ccccc3)nc3ccccc23)cc1 [Compound 137, [2-(4-Bromophenyl)-ethyl]-(2-phenylquinazolino-4-yl)-amine] | 3.1 | strong (“strong” means that the degree of phosphorylation of threonine-172 increased by 3 times or more) | 2.4
CCCCN(C)c1nc(-c2ccccc2)nc2ccccc12 [Compound 138, Butylmethyl-(2-phenylquinazolino-4-yl)-amine] | 2.9 | strong (“strong” means that the degree of phosphorylation of threonine-172 increased by 3 times or more) | 2.4
FC(F)(F)c1ccc(CNc2nc(-c3ccccc3)nc3ccccc23)cc1 [Compound 139, (2-Phenylquinazolino-4-yl)-(4-trifluoromethylbenzyl)-amine] | 2.1 | strong (“strong” means that the degree of phosphorylation of threonine-172 increased by 3 times or more) | 2.5
Fc1ccccc1CCNc1nc(-c2ccccc2)nc2ccccc12 [Compound 140, [2-(2-Fluorophenyl)-ethyl]-(2-phenylquinazolino-4-yl)-amine] | 3.1 | strong (“strong” means that the degree of phosphorylation of threonine-172 increased by 3 times or more) | 2.7
c1ccc(-c2nc(NCc3ccccn3)c3ccccc3n2)cc1 [Compound 142, (2-Phenylquinazolino-4-yl)-pyridino-2-ylmethylamine] | 1.4 | mild (“mild” means that the degree of phosphorylation of threonine-172 increased by 1 to 3 times) | 1.4
CC1CCCC(Nc2nc(-c3ccccc3)nc3ccccc23)C1C (stereo not drawn) [Compound 143, (2,3-Dimethylcyclohexyl)-(2-phenylquinazolino-4-yl)-amine] | 2.4 | strong (“strong” means that the degree of phosphorylation of threonine-172 increased by 3 times or more) | 2.3
COc1ccc(CNc2nc(-c3ccccc3)nc3ccccc23)c(OC)c1 [Compound 144, (2,4-Dimethoxybenzyl)-(2-phenylquinazolino-4-yl)-amine] | 2.1 | strong (“strong” means that the degree of phosphorylation of threonine-172 increased by 3 times or more) | 1.3
Clc1cccc(CNc2nc(-c3ccccc3)nc3ccccc23)c1 [Compound 145, (3-Chlorobenzyl)-(2-phenylquinazolino-4-yl)-amine] | 2.7 | strong (“strong” means that the degree of phosphorylation of threonine-172 increased by 3 times or more) | 2.2
COc1ccc(OC)c(CNc2nc(-c3ccccc3)nc3ccccc23)c1 [Compound 147, (2,5-Dimethoxybenzyl)-(2-phenylquinazolino-4-yl)-amine] | 1.8 | strong (“strong” means that the degree of phosphorylation of threonine-172 increased by 3 times or more) | 1.3
Brc1ccc(CNc2nc(-c3ccccc3)nc3ccccc23)cc1 [Compound 148, (4-Bromobenzyl)-(2-phenylquinazolino-4-yl)-amine] | 1.7 | strong (“strong” means that the degree of phosphorylation of threonine-172 increased by 3 times or more) | 2.1
Clc1ccc(CCNc2nc(-c3ccccc3)nc3ccccc23)cc1Cl [Compound 149, [2-(3,4-Dichlorophenyl)-ethyl]-(2-phenylquinazolino-4-yl)-amine] | 2.5 | strong (“strong” means that the degree of phosphorylation of threonine-172 increased by 3 times or more) | 2.6
Clc1ccccc1CCNc1nc(-c2ccccc2)nc2ccccc12 [Compound 151, [2-(2-Chlorophenyl)-ethyl]-(2-phenylquinazolino-4-yl)-amine] | 1.8 | strong (“strong” means that the degree of phosphorylation of threonine-172 increased by 3 times or more) | 1.3
Brc1cccc(CNc2nc(-c3ccccc3)nc3ccccc23)c1 [Compound 153, (3-Bromobenzyl)-(2-phenylquinazolino-4-yl)-amine] | 1.3 | mild (“mild” means that the degree of phosphorylation of threonine-172 increased by 1 to 3 times) | 2.4
Brc1ccccc1CNc1nc(-c2ccccc2)nc2ccccc12 [Compound 155, (2-Bromobenzyl)-(2-phenylquinazolino-4-yl)-amine] | 1.3 | mild (“mild” means that the degree of phosphorylation of threonine-172 increased by 1 to 3 times) | 2.7
Cc1nc(NCc2ccccc2)c2ccccc2n1 [Compound 163, Benzyl-(2-methylquinazolino-4-yl)-amine] | 2.8 | strong (“strong” means that the degree of phosphorylation of threonine-172 increased by 3 times or more) | 2.5
COc1cccc(CNc2nc(C)nc3ccccc23)c1 [Compound 164, (3-Methoxybenzyl)-(2-methylquinazolino-4-yl)-amine] | 1.6 | mild (“mild” means that the degree of phosphorylation of threonine-172 increased by 1 to 3 times) | 3.4
COc1ccc(CNc2nc(C)nc3ccccc23)cc1 [Compound 165, (4-Methoxybenzyl)-(2-methylquinazolino-4-yl)-amine] | 5.2 | strong (“strong” means that the degree of phosphorylation of threonine-172 increased by 3 times or more) | 2.5
Cc1nc(NCc2cccc(C(F)(F)F)c2)c2ccccc2n1 [Compound 166, (2-Methylquinazolino-4-yl)-(3-trifluoromethylbenzyl)-amine] | 3.8 | strong (“strong” means that the degree of phosphorylation of threonine-172 increased by 3 times or more) | 2.8
Cc1nc(NCCc2ccccc2)c2ccccc2n1 [Compound 167, (2-Methylquinazolino-4-yl)-phenethylamine] | 6.7 | strong (“strong” means that the degree of phosphorylation of threonine-172 increased by 3 times or more) | 3.2
Cc1nc(NCCCCc2ccccc2)c2ccccc2n1 [Compound 168, (2-Methylquinazolino-4-yl)-(4-phenylbutyl)-amine] | 8.4 | strong (“strong” means that the degree of phosphorylation of threonine-172 increased by 3 times or more) | 3.6
Cc1nc(NCc2cccc3ccccc23)c2ccccc2n1 [Compound 169, (2-Methylquinazolino-4-yl)-naphthaleno-1-ylmethylamine] | 6.6 | strong (“strong” means that the degree of phosphorylation of threonine-172 increased by 3 times or more) | 2.5
